Reference: US4038308A, “Prostaglandin derivatives” (American Home Products Corporation, priority 1976, dated 1977)

How the values were obtained:
[1] = test system: bronchoconstricting effects of a standard dose of acetylcholine; assay: Bronchodilation upon aerosol inhalation in the guinea pig: inhibition of acetylcholine bronchoconstriction (method of Rosenthale et al.); assay type: in vivo; conditions: acetylcholine i.v. dose producing ca. 30% bronchoconstriction
Excerpt: In using the compounds of the invention to produce bronchodilating effects in warm-blooded animals, they may be administered in a variety of dosage forms: oral, injectable, and aerosol inhalation. Aerosol inhalation is a preferred method because of its rapid onset of action, great potency, and specificity of action. The particular dosage to obtain the bronchodilating effect will vary with the particular compound employed, the particular animal involved, and the degree of bronchodilation desired. In the guinea pig, by aerosol inhalation, the dose to produce bronchodilation is from about 0.15 micrograms to about 25 micrograms, and preferably from about 0.15 to about 15 micrograms. The bronchodilation produced upon aerosol inhalation can be observed by the method of Rosenthale et al., J. Pharmacol. Exp. Ther., 178, 541 (1971). Using this procedure the following results were obtained:
*The dose (i.v.) of acetylcholine which produces a ca. 30%

[2] = Hypotensive effect (blood pressure change) in the anesthetized dog, intravenous route; assay type: in vivo; conditions: dose 100 μg/kg., average of two animals
Protocol: In the use of the compounds of the invention to produce hypotensive effects in warm-blooded animals, administration by the injectable route is preferred, preferably the intravenous route.
Thus in the anesthetized dog by the intravenous route the dose to produce hypotension is from about 1 μg/kg. to about 200 μg/kg. and preferably from about 10 μg/kg. to about 100 μg/kg. Using this procedure the following results were obtained.

| SMILES | Percent Inhibition of the bronchoconstricting effects of a standard dose of acetylcholine ([1]; dose 0.15 μg) | Percent Inhibition of the bronchoconstricting effects of a standard dose of acetylcholine ([1]; dose 1.50 μg) | Percent Inhibition of the bronchoconstricting effects of a standard dose of acetylcholine ([1]; dose 15 μg) | Percent Inhibition of the bronchoconstricting effects of a standard dose of acetylcholine ([1]; dose .015 μg) | Δ B.P. [2] |
| --- | --- | --- | --- | --- | --- |
| C#C[C@@H]1CC(=O)[C@H](CCCCCCC(=O)O)[C@H]1/C=C/[C@@H](O)CCCCC [3α-Ethynyl-2β-[(3S)-3-Hydroxy-Trans-1-Octenyl]-5-Oxo-1α-Cyclopentaneheptanoic Acid] | 52% | 58% | 76% | 28% |  |
| C#CC1CC(=O)[C@H](C/C=C\CCCC(=O)O)[C@H]1/C=C/[C@H](O)CCCCC (stereo partly drawn) [7-([3RS]-3-Ethynyl-2β-[(3R)-3-Hydroxy-Trans-1-Octenyl]-5-Oxo-1β-Cyclopentyl)-Cis-5-Heptenoic Acid] |  | 43% | 68% |  |  |
| C#CC1CC(=O)[C@H](C/C=C\CCCC(=O)O)[C@H]1/C=C/[C@@H](O)CCCCC (stereo partly drawn) [7-([3RS]-3-Ethynyl-2β-[(3S)-3-Hydroxy-Trans-1-Octenyl]-5-Oxo-1α-Cyclopentyl)-Cis-5-Heptenoic Acid] |  |  |  |  | -31 mm. mg |
| C#CC1CC(=O)[C@H](C/C=C\CCCC(=O)O)[C@H]1/C=C/C(O)(C#C)CCCCC (stereo partly drawn) [7-[(3RS)-3-Ethynyl-2β-[(3RS)-3-Ethynyl-3-Hydroxy-Trans-1-Octenyl]-5-Oxo-1α-Cyclopentyl]-Cis-5-Heptenoic Acid] | 56% | 86% |  | 42% | -41 mm. mg |
| C#CC1CC(=O)[C@H](CCCCCCC(=O)O)[C@H]1/C=C/C(C)(O)CCCCC (stereo partly drawn) [(3RS)-3-Ethynyl-2β[(3RS)-3-Hydroxy-3-Methyl-Trans-1-Octenyl]-5-Oxo-1α-cyclopentane-Heptanoic Acid] | 54% | 56% | 37% |  | -16 mm. mg |
| C#CC1CC(=O)[C@H](CCCCCCC(=O)O)[C@H]1/C=C/C(=O)CCCCC (stereo partly drawn) [(3RS)-3-Ethynyl-5-Oxo-2β-(3-Oxo-Trans-1-Octenyl)-1α-Cyclopentaneheptanoic Acid] |  | 36% | 75% |  |  |
